We go through three molecules from patent US20120202849A1, “PHARMACEUTICAL COMPOSITIONS FOR THE TREATMENT/PROPHYLAXIS OF NON-ALCOHOLIC FATTY LIVER DISEASE” (priority 2009, published 2012).

Experiment [1] has as its system fructose induced fatty liver. The experiment is described as follows: Fructose induced fatty liver (NAFLD) in rats: biochemical parameters, body and liver weight, liver index after 14 days oral treatment. Type of experiment: in vivo, Wistar rats. The conditions noted are these: monotherapy or high dose combination: HCQ 160 mg/kg, ATV 8 mg/kg, MET 500 mg/kg, Mean ± S.D.; for Alk. PO4: alkaline phosphatase; for Glucose: blood; for Liver Index: calculated from body weight and liver weight; for TC (Total Cholesterol) / TG (Triglyceride): serum. The text has this:
The study was based on the experiment on rats with fatty liver induced by fructose feeding and given oral doses of different strengths of the corresponding drug samples for 14 days. It was concluded from the study that the protection given by the combination therapy is more as compared to monotherapy. […] In this experiment 66 Wistar rats weighing 150-200 g of either sex were divided randomly into 11 groups consisting of six rats each. […] Group 7 was NAFLD induced and treated with high dose combination of HCQ (160 mg/kg) and MET (500 mg/kg). Group 8 was NAFLD induced and treated with low dose combination of HCQ (80 mg/kg) and ATV (4 mg/kg). Group 9 was NAFLD induced and treated with high dose combination of HCQ (160 mg/kg) and ATV (8 mg/kg). Group 10 was NAFLD induced and treated with low dose combination of ATV (4 mg/kg), HCQ (80 mg/kg) and MET (250 mg/kg) whereas Group 11 was NAFLD induced and treated with high dose combination of ATV (8 mg/kg), HCQ (160 mg/kg) and MET (500 mg/kg). […] At the end of the therapy histopathological evaluations were performed.

Experiment [2] relates to fructose induced fatty liver. The experiment is described as follows: Histopathological examination of NAFLD induced liver tissue. In kind it is in vivo, Wistar rats. Conditions: after 14 days; monotherapy or high dose combination: HCQ 160 mg/kg p.o., ATV 8 mg/kg p.o., MET 500 mg/kg. The method, then: In this experiment 66 Wistar rats weighing 150-200 g of either sex were divided randomly into 11 groups consisting of six rats each. Group 1 (normal control) consisted of normal rats that neither received fructose nor any drug, Group 2 served as NAFLD induced control (NAFLD was induced in rats by replacing water with 10% fructose solution for two weeks) which received vehicle orally, Group 3 was NAFLD induced and treated with HCQ (160 mg/kg), Group 4 was NAFLD induced and treated with ATV (8 mg/kg), Group 5 was NAFLD induced and treated with MET (500 mg/kg), Group 6 was NAFLD induced and treated with low dose combination of HCQ (80 mg/kg) and MET (250 mg/kg). Group 7 was NAFLD induced and treated with high dose combination of HCQ (160 mg/kg) and MET (500 mg/kg). Group 8 was NAFLD induced and treated with low dose combination of HCQ (80 mg/kg) and ATV (4 mg/kg). Group 9 was NAFLD induced and treated with high dose combination of HCQ (160 mg/kg) and ATV (8 mg/kg). Group 10 was NAFLD induced and treated with low dose combination of ATV (4 mg/kg), HCQ (80 mg/kg) and MET (250 mg/kg) whereas Group 11 was NAFLD induced and treated with high dose combination of ATV (8 mg/kg), HCQ (160 mg/kg) and MET (500 mg/kg). The study drugs suspended in vehicle [0.1% w/v suspension of Tween 80 and carboxymethylcellulose (CMC) in water] were administered for 14 days. After 14 days treatment, all the animals were sacrificed under chloroform anesthesia and blood was collected for determination of blood glucose levels, triglyceride levels, SGPT, SGOT, alkaline phosphatase and total cholesterol using autoanalyser (Microlab 2000) Liver index was also calculated based upon the body weight and liver weight. At the end of the therapy histopathological evaluations were performed.

For experiment [3] the following is noted: patients treated with hydroxychloroquine; cited from earlier work.
The conditions of experiment [4]: patients on combined insulin and hydroxychloroquine therapy; average; cited from earlier work.

As for `CC(C)c1c(C(=O)Nc2ccccc2)c(-c2ccccc2)c(-c2ccc(F)cc2)n1CC[C@@H](O)C[C@@H](O)CC(=O)O` [ATV, Atorvastatin], in experiment [1], the “Alk. PO4” value is given as 54.66 ± 2.58 U/L, the Glucose came out at 159.33 ± 9.07 mg/dL, the “Liver Index” value is reported as 3.20 ± 0.24 and the SGOT stood at 114.00 ± 3.50 U/L. Moreover, in experiment [1], the SGPT came out at 37.5 ± 2.42 U/L, the “TC (Total Cholesterol)” value turned out to be 137.66 ± 5.20 mg/dL and the “TG (Triglyceride)” value was 463.33 ± 12.12 mg/dL. In addition, the “Histopathological examination of liver” value in experiment [2] was “the degree of hepatic injury including steatosis and fatty infiltration were attenuated”.

For the molecule `CCN(CCO)CCCC(C)Nc1ccnc2cc(Cl)ccc12` (stereo not shown) [HCQ, Hydroxychloroquine], in experiment [1], the “Alk. PO4” value is given as 63.16 ± 4.07 U/L, the Glucose amounted to 157.16 ± 7.93 mg/dL, the “Liver Index” value is listed as 4.53 ± 0.10 and the “Liver Weight” value was determined as 7.64 ± 0.33 g. Also, in experiment [1], the SGOT was 137.83 ± 10.59 U/L, the SGPT turned out to be 44.83 ± 2.78 U/L, the “TC (Total Cholesterol)” value turned out to be 159.66 ± 10.23 mg/dL and the “TG (Triglyceride)” value came to 556.66 ± 12.21 mg/dL. In addition, in experiment [2], the “Histopathological examination of liver” value was “did not show any recovery from fatty change”. Besides, the “Decrease in serum levels of cholesterol” value in experiment [3] was “approximately 10%”. In addition, the “Reduction of daily insulin dose” value in experiment [4] is 30%.

As for `CN(C)C(=N)N=C(N)N` [MET, Metformin], in experiment [1], the “Alk. PO4” value came out at 61 ± 6.32 U/L, the Glucose worked out at 125.16 ± 6.24 mg/dL, the “Liver Index” value is recorded as 4.50 ± 0.30 and the “Liver Weight” value is listed as 7.63 ± 0.30 g. Further, in experiment [1], the SGOT amounted to 132.33 ± 8.98 U/L, the SGPT was found to be 43.66 ± 7.33 U/L, the “TC (Total Cholesterol)” value worked out at 155.66 ± 10.85 mg/dL and the “TG (Triglyceride)” value stood at 516.33 ± 56.25 mg/dL. The “Histopathological examination of liver” value in experiment [2] is “Liver cells showed regeneration and repair in the form of nucleolation and absence of coarse fat vacuoles”.
